Patent US20190070170A1, “METHOD OF S[…]-1” (Macau University of Science and Technology, priority 2017, published 2019)

Key:
PGE2 [1] = assay: PGE2 production in LPS-stimulated rat peritoneal macrophages (ELISA); type: cell-based; conditions: SIN 160, 320 or 640 μM or 0.5 μM DEX 1 h, then LPS 1 μg/ml 24 h
Experimental: (§1) Sprague-Dawley (SD) rats from the University of Hong Kong were housed in cages with free access to food and water. Peritoneal macrophages of SD rats were isolated as described in Liu J. et al., Pharmacological research 2016, 111:303-315. Briefly, untreated rats were sacrificed and after laparotomy, about 50 ml cold sterile Hank's balanced salt solution (HBSS) was used to lavage the peritoneal cavity at twice, and then the peritoneal lavage fluid was collected and centrifuged at 1500 rpm for 10 min. The cell pellets was suspended at a density 1.5×10^6 cells/ml in pre-hearted DMEM medium with 10% heat-inactivated FBS, penicillin G (100 units/ml), streptomycin ([…]), and L-glutamine (2 mM), followed by seeding in 6-well plates at a density of 4.5×10^6 cells and incubation for 2 h. Then the medium were discarded to remove the non-adherent cells. The adherent cells were further washed for two times with pre-heated DMEM medium to remove floating cells. Next, cells were pre-treated with various concentration of SIN for 1 h, followed by stimulation with LPS (1 μg/ml).
(§2) RAW264.7 cells and rat peritoneal macrophages were seeded in a 96-well plate at density of 1.4×10^4 and 1.5×10^5 cells, respectively. […] The optical density was measured at 570 nm against a reference wavelength of 650 nm using a microplate UV/VIS spectrophotometer (Tecan, Mannedorf, Switzerland). […]

PGE2 [2] = assay: PGE2 production in LPS-stimulated RAW264.7 cells (ELISA); type: cell-based, mouse; conditions: SIN 160, 320 or 640 μM or 0.5 μM DEX 1 h, then LPS 100 ng/ml 18 h
Experimental: (§3) RAW264.7 and A549 cell lines were obtained from American Type Culture Collection (ATCC, Manassas, Va., USA) and maintained in DMEM (RAW264.7) or 1640 (A549) medium containing 10% FBS (Gibco-BRL, Grand Island, N.Y., USA) and antibiotics at 37° C. in a humidified atmosphere containing 5% CO2. RAW264.7 cells were plated in 6-well plates at a density of 4×10^5 cells and incubated for 24 h, then the cells were pretreated with different concentrations of SIN for 1 h before stimulating with LPS (100 ng/ml). A549 cells were seeded in 6-well plates at a density of 1×10^5 cells and incubated for 24 h, followed by pretreatment with SIN. A549 cells were then stimulated by IL-1β (1 ng/ml).
(§4) RAW264.7 cells and rat peritoneal macrophages were seeded in a 96-well plate at density of 1.4×10^4 and 1.5×10^5 cells, respectively. Various concentration of SIN was added to the cells for 1 hour before LPS stimulation. After stimulation with LPS for 18 h (RAW264.7 cells) or 24 h (rat peritoneal macrophages), MTT solution was added to each well and incubated for another 4 hours. 100 μl 10% SDS-HCl solution was added to each well for overnight to dissolve the formazan dye. The optical density was measured at 570 nm against a reference wavelength of 650 nm using a microplate UV/VIS spectrophotometer (Tecan, Mannedorf, Switzerland). […]

cPLA2 = cPLA2 protein expression in LPS-activated rat peritoneal macrophages (western blotting); type: cell-based; conditions: SIN or DEX 1 h, LPS 24 h
Experimental: as §1
(§5) Whole-cell and nuclear proteins were obtained using RIPA lysis buffer (CST, Boston, Mass., USA) and Nuclear and Cytoplasmic Extraction Reagents kit from Thermo Scientific (Asheville, N.C., USA), respectively. […] The levels of protein expression were measured using Odyssey v3.0 software from Li-COR (Lincoln, Nebr., USA).

COX-1 = COX-1 protein expression in IL-1β-stimulated A549 cells (western blotting); type: cell-based; conditions: IL-1β with SIN or DEX for 48 h
Experimental: as §3
(§6) Whole-cell and nuclear proteins were obtained using RIPA lysis buffer (CST, Boston, Mass., USA) and Nuclear and Cytoplasmic Extraction Reagents kit from Thermo Scientific (Asheville, N.C., USA), respectively. For immunoblotting, proteins from whole-cell, cytoplasm, nuclear, and microsomal fractions were separated on SDS-PAGE, then transferred onto a nitrocellulose membrane from GE Healthcare Life Sciences (Buckinghamshire, UK), and incubated with 5% skimmed milk at room temperature for 1 h. […] The levels of protein expression were measured using Odyssey v3.0 software from Li-COR (Lincoln, Nebr., USA).

COX-2 = COX-2 protein expression in IL-1β-stimulated A549 cells (western blotting); type: cell-based; conditions: IL-1β with SIN or DEX for 48 h
Experimental: as §3, §6

TXA2 = TXA2 level in culture supernatants of LPS-activated rat peritoneal macrophages (ELISA); type: cell-based; conditions: LPS-stimulated rat peritoneal macrophages, culture supernatant
Experimental: as §1, §2

[3] = test system: mitogen-activated protein kinase (MAPK); assay: MAPK pathway (p-JNK, p-p38, p-ERK, p-c-Jun) in LPS-stimulated rat peritoneal macrophages (western blotting); type: cell-based; conditions: SIN 1 h, LPS 1 μg/ml 15 min or 1 h
Experimental: as §1, §5

NO = NO production in LPS-stimulated rat peritoneal macrophages (Griess reagent); type: cell-based; conditions: pretreatment 1 h, LPS 1 μg/ml 24 h
Experimental: as §1, §2

iNOS = iNOS protein level in LPS-stimulated RAW264.7 cells (immunoblotting); type: cell-based, mouse; conditions: pretreatment 1 h, LPS 100 ng/ml 18 h
Experimental: as §3, §6

TNF-α [4] = assay: TNF-α level in LPS-stimulated rat peritoneal macrophages (ELISA); type: cell-based; conditions: pretreatment 1 h, LPS 1 μg/ml 24 h
Experimental: as §1, §2

TNF-α [5] = assay: TNF-α level in LPS-stimulated RAW264.7 cells (ELISA); type: cell-based, mouse; conditions: pretreatment 1 h, LPS 100 ng/ml 18 h
Experimental: as §3, §4

## COC1=C[C@@H]2[C@@H]3Cc4ccc(OC)c(O)c4[C@]2(CCN3C)CC1=O [SIN, sinomenine]
PGE2 [1]
  PGE2 production: significant inhibition of PGE2 production in a dose dependent manner
PGE2 [2]
  PGE2 production: significant inhibition of PGE2 production in a dose dependent manner
cPLA2
  cPLA2 expression: no influences
COX-1
  COX-1 protein expression: did not suppress
COX-2
  COX-2 protein expression: did not suppress
TXA2
  level of TXA2: no significant influence
[3]
  influence on MAPK pathway: No observable effects
NO
  NO production (nitrite): significantly inhibited
iNOS
  iNOS expression: significantly inhibited
TNF-α [4]
  TNF-α production: significantly inhibited
TNF-α [5]
  TNF-α production: significantly inhibited
